Measured values: ChEMBL document CHEMBL5053549, “Discovery of Potent and Novel Dual PARP/BRD4 Inhibitors for Efficient Treatment of Pancreatic Cancer” (J Med Chem, 2021)
Activity calls are given as the source filed them. The rule behind the calls is not given here.

Tests used:
SW1990 [1] = assay: Induction of DNA damage in human SW1990 cells assessed as increase in gammaH2AX at 4 uM incubated for 4 days by immunofluorescence assay; assay type: functional, cell-based; conditions: time 4.0 day
Mus musculus [2] = assay: In vivo inhibition of BRD4 expression in human SW1900 cells xenografted in BALB/c mouse assessed as reversal of Olaparib-induced BRD4 accumulation at 15 mg/kg, ip administered for 28 consecutive days in presence of 45 mg/kg Olaparib by immunohistochemical analysis; assay type: functional, organism-based; conditions: time 28.0 day
CAPAN-1 = assay: Antiproliferative activity against human CAPAN-1 cells assessed as reduction in cell viability after 4 days by MTT assay; assay type: functional, cell-based; conditions: CAPAN-1, 96 h
SW1990 [3] = assay: Inhibition of homologous recombinant repair in human SW1990 cells assessed as reduction in Olaparib-induced Rad51 expression at 1 uM after 4 days in presence of Olaparib by Q-PCR analysis; assay type: functional, cell-based; conditions: time 4.0 day
[4] = molecular target: Histone acetyltransferase p300 (Homo sapiens, UniProt Q09472); assay: Inhibition of P300 (unknown orign) using acetyl-CoA as substrate preincubated for 30 mins followed by substrate addition measured after 1 hr by microplate reader analysis
Chain of Histone acetyltransferase p300 (Q09472 whole entry): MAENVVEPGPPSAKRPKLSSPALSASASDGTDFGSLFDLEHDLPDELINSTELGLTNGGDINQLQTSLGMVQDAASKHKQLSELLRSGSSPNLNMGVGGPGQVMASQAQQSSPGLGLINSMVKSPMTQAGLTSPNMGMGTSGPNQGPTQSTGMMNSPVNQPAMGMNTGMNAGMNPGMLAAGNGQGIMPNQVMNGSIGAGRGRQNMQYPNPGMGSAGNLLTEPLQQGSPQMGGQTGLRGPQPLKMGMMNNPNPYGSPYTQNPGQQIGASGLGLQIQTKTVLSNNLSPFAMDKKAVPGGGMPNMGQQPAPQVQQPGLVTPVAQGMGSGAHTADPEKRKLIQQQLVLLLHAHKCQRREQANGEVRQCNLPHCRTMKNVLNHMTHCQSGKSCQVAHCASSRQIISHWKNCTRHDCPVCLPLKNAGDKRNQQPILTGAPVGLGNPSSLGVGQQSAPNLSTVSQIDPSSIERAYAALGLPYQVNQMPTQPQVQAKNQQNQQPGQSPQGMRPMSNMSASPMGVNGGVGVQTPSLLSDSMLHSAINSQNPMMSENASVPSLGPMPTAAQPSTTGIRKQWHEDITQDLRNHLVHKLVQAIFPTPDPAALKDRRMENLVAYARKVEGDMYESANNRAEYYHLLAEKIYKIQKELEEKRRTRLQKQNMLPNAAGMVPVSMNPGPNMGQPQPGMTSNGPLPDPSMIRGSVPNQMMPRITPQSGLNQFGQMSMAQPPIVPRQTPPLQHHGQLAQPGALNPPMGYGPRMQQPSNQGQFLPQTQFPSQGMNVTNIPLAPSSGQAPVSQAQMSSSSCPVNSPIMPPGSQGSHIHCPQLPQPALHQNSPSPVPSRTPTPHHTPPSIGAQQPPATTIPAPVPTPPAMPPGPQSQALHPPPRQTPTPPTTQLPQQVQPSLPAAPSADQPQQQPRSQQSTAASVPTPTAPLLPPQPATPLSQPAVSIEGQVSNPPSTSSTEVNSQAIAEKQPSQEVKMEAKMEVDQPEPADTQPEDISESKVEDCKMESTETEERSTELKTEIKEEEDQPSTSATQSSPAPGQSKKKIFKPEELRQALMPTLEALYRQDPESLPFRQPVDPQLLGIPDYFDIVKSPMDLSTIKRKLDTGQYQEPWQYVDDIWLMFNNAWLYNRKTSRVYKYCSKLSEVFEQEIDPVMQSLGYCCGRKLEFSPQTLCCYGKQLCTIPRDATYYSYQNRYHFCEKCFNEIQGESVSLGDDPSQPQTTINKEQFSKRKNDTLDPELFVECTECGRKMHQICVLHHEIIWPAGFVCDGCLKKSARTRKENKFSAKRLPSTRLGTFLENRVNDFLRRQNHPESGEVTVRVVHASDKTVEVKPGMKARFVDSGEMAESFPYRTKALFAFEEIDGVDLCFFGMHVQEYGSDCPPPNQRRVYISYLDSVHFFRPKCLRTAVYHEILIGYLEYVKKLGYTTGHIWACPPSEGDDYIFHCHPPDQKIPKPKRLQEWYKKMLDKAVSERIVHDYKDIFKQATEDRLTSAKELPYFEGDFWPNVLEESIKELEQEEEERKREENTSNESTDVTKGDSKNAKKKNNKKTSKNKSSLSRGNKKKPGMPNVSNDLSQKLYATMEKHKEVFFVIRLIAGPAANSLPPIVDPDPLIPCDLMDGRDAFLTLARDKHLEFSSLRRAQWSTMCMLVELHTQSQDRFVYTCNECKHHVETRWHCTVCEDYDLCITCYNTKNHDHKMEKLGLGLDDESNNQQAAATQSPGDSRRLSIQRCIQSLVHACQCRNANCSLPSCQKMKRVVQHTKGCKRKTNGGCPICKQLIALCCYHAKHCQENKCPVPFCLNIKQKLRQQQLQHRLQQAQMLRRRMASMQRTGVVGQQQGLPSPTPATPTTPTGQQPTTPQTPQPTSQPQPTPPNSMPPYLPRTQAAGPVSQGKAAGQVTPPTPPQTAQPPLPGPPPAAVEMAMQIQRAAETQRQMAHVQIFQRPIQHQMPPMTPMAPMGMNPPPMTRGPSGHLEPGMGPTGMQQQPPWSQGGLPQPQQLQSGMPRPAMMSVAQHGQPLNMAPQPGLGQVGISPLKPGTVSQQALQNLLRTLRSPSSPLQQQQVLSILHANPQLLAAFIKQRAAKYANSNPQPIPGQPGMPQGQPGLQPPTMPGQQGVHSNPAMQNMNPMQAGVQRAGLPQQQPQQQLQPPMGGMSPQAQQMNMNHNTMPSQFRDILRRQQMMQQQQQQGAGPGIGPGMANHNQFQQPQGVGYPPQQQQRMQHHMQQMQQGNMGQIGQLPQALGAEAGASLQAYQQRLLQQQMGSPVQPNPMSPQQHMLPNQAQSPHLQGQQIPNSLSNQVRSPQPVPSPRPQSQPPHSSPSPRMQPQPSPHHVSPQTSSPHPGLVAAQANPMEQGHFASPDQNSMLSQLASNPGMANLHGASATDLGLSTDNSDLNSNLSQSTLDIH

SW1990 [5] = assay: Induction of DNA damage in human SW1990 cells assessed as tail DNA at 1 uM incubated for 4 days in presence of 3 uM Olaparib by comet assay; assay type: functional, cell-based; conditions: time 4.0 day
MDA-MB-231 = assay: Antiproliferative activity against human MDA-MB-231 cells assessed as reduction in cell viability after 7 days; assay type: functional, cell-based; conditions: MDA-MB-231, 168 h
SW1990 [6] = assay: Inhibition of homologous recombinant repair in human SW1990 cells assessed as increase in […] expression at 4 uM after 4 days by Western blot analysis; assay type: functional, cell-based; conditions: time 4.0 day
SW1990 [7] = assay: Induction of apoptosis in human SW1990 cells assessed as late apoptotic cells at 1 uM after 4 days in presence of 3 uM Olaparib by Annexin V-FITC and propidium iodide staining based flow cytometry (reference value: 6.22%); assay type: functional; conditions: time 4 day
SW1990 [8] = assay: Induction of cell cycle arrest in human SW1990 cells assessed as accumulation of cells at S phase at 4 uM incubated for 4 days by propidium iodide staining based flow cytometry (reference value: 29.32%); assay type: functional; conditions: time 4 day
SW1990 [9] = assay: Inhibition of homologous recombinant repair in human SW1990 cells assessed as reduction in BRCA1 expression at 4 uM after 4 days by Q-PCR analysis; assay type: functional, cell-based; conditions: time 4.0 day
SW1990 [10] = assay: Effect on cell cycle progression in human SW1990 cells assessed as reduction in Olaparib-induced CCND1 expression at 1 uM after 4 days in presence of Olaparib by Western blot analysis; assay type: functional, cell-based; conditions: time 4.0 day
SW1990 [11] = assay: Antiproliferative activity against human SW1990 cells assessed as reduction in cell viability after 4 days by MTT assay; assay type: functional, cell-based; conditions: SW1990, 96 h
Mus musculus [12] = assay: Toxicity in BALB/c mouse xenografted with human SW1990 cells assessed as kidney damage at 15 mg/kg, ip administered for 28 consecutive days by H and E staining based […] microscopic analysis; assay type: organism-based; conditions: in vivo, 672 h, time 28 day
Mus musculus [13] = assay: Toxicity in BALB/c mouse xenografted with human SW1990 cells assessed as effect on body weight at 15 mg/kg, ip administered for 28 consecutive days in presence of 45 mg/kg Olaparib; assay type: organism-based; conditions: in vivo, 672 h, time 28 day
SW1990 [14] = assay: Inhibition of homologous recombinant repair in human SW1990 cells assessed as reduction in Olaparib-induced FOXM1 expression at 1 uM after 4 days in presence of Olaparib by Western blot analysis; assay type: functional, cell-based; conditions: time 4.0 day
CFPAC-1 = assay: Antiproliferative activity against human CFPAC-1 cells assessed as reduction in cell viability after 4 days by MTT assay; assay type: functional, cell-based; conditions: CFPAC-1, 96 h, read-out: IC50
Mus musculus [15] = assay: Toxicity in BALB/c mouse xenografted with human SW1990 cells assessed as effect on body weight at 45 mg/kg, ip administered for 28 consecutive days; assay type: organism-based; conditions: in vivo, 672 h, time 28 day
SW1990 [16] = assay: Effect on cell cycle progression in human SW1990 cells assessed as reduction in CCND1 expression at 1 to 2 uM after 4 days by Q-PCR analysis; assay type: functional, cell-based; conditions: dose 1-2 µM, time 4.0 day
SW1990 [17] = assay: Induction of autophagy in human SW1990 cells assessed as increase in ATG5 expression at 1 to 2 uM incubated for 4 days by immunofluorescence assay; assay type: functional, cell-based; conditions: dose 1-2 µM, time 4.0 day
SW1990 [18] = assay: Antitumor activity against human SW1990 cells xenografted in BALB/c mouse assessed as inhibition of Ki67 expression at 45 mg/kg, ip administered for 28 consecutive days by immunohistochemical analysis; assay type: functional, organism-based; conditions: time 28.0 day
[19] = molecular target: Poly [ADP-ribose] polymerase 1 (Homo sapiens, UniProt P09874); assay: Inhibition of PARP1 expression in human SW1990 cells at 1 uM after 4 days by Q-PCR analysis; assay type: cell-based; conditions: time 4.0 day
Chain of Poly [ADP-ribose] polymerase 1 (P09874 whole entry): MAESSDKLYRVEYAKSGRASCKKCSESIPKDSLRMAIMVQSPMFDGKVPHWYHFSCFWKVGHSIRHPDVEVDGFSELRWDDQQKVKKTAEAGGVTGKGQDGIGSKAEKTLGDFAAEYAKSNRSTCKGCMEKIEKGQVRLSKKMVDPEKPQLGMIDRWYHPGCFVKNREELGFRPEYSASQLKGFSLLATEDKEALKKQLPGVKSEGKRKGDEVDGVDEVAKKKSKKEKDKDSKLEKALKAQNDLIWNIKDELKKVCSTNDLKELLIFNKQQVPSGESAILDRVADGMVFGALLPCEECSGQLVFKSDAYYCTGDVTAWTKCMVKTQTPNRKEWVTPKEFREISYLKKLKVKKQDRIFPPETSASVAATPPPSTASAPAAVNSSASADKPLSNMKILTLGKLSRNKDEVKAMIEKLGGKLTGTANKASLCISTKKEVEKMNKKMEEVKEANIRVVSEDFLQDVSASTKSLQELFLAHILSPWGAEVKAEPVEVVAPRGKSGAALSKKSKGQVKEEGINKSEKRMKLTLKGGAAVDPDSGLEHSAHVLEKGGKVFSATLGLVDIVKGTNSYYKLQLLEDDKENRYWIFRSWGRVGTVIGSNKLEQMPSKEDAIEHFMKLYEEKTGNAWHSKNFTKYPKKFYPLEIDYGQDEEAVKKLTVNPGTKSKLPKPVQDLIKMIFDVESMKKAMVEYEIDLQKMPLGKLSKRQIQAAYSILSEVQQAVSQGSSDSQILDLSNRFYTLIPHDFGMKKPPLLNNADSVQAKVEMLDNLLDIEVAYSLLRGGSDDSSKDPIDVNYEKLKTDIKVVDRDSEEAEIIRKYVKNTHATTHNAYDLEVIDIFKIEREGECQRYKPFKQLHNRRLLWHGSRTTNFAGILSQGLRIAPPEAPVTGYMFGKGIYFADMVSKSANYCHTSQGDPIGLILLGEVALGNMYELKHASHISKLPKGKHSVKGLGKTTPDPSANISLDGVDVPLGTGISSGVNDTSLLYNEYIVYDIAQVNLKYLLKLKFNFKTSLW

Mus musculus [20] = assay: In vivo inhibition of BRD4 expression in human […] cells xenografted in BALB/c mouse at 45 mg/kg, ip administered for 28 consecutive days by Q-PCR analysis; assay type: functional, organism-based; conditions: time 28.0 day
SW1990 [21] = assay: Induction of autophagy in human SW1990 cells xenografted in BALB/c mouse assessed as increase in LC3B expression at 45 mg/kg, ip after 4 days by Western blot analysis; assay type: functional, organism-based; conditions: time 4.0 day
SW1990 [22] = assay: Induction of autophagy in human SW1990 cells assessed as increase in LC3B expression at 1 to 2 uM incubated for 4 days by immunofluorescence assay; assay type: functional, cell-based; conditions: dose 1-2 µM, time 4.0 day
SW1990 [23] = assay: Induction of autophagy in human SW1990 cells assessed as reduction in Bcl-2 expression at 1 to 2 uM incubated for 4 days by immunofluorescence assay; assay type: functional, cell-based; conditions: dose 1-2 µM, time 4.0 day
SW1990 [24] = assay: Effect on cell cycle progression in human SW1990 cells assessed as reduction in E2F2 expression at 1 to 2 uM after 4 days by Q-PCR analysis; assay type: functional, cell-based; conditions: dose 1-2 µM, time 4.0 day
[25] = molecular target: Serine/threonine-protein kinase PLK1 (Homo sapiens, UniProt P53350); assay: Inhibition of recombinant PLK1 (unknown origin) […] measured after 40 mins by ADP-glo luminescence kinase assay
Chain of Serine/threonine-protein kinase PLK1 (P53350 whole entry): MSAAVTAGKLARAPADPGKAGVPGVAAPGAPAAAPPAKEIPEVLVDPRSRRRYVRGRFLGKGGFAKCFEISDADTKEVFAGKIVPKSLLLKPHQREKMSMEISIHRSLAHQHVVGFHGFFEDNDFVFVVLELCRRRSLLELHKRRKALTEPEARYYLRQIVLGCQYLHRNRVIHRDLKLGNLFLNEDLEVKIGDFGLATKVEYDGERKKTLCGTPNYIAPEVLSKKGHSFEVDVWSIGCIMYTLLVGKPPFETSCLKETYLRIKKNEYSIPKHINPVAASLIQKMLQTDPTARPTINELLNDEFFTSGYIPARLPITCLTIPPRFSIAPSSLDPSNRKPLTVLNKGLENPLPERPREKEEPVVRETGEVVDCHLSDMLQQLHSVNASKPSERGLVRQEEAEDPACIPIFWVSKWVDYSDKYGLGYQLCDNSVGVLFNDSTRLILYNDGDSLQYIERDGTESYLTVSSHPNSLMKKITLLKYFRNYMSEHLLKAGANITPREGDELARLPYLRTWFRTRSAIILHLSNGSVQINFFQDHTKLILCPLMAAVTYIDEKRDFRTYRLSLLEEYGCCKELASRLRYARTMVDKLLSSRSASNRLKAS

SW1990 [26] = assay: Induction of apoptosis in human SW1990 cells assessed as early apoptotic cells at 1 uM after 4 days by Annexin V-FITC and propidium iodide staining based flow cytometry (reference value: […]%); assay type: functional; conditions: time 4 day
SW1990 [27] = assay: Induction of cell cycle arrest in human SW1990 cells assessed as accumulation of cells at G2/M phase at 1 uM incubated for 4 days by propidium iodide staining based flow cytometry (reference value: 5.89%); assay type: functional; conditions: time 4 day
Mus musculus [28] = assay: Inhibition of homologous recombinant repair in human SW1990 cells xenografted in BALB/c mouse assessed as increase in HEX1M1 expression at 45 mg/kg, ip after 4 days by immunohistochemical analysis; assay type: functional, organism-based; conditions: time 4.0 day
Mus musculus [29] = assay: In vivo inhibition of PARP1 expression in human […] cells xenografted in BALB/c mouse at 45 mg/kg, ip administered for 28 consecutive days by Western blot analysis; assay type: functional, organism-based; conditions: time 28.0 day
SW1990 [30] = assay: Induction of apoptosis in human SW1990 cells assessed as late apoptotic cells at 2 uM after 4 days by Annexin V-FITC and propidium iodide staining based flow cytometry (reference value: 6.22%); assay type: functional; conditions: time 4 day
Mus musculus [31] = assay: Inhibition of homologous recombinant repair in human SW1990 cells xenografted in BALB/c mouse assessed as increase in gammaH2AX expression at 45 mg/kg, ip after 4 days by immunohistochemical analysis; assay type: functional, organism-based; conditions: time 4.0 day

## Cc1sc2c(c1C)C(c1ccc(Cl)cc1)=N[C@@H](CC(=O)OC(C)(C)C)c1nnc(C)n1-2
SW1990 [1]
  Activity: Active
Mus musculus [2]
  Activity: Active
CAPAN-1
  IC50: 2.44 µM
SW1990 [3]
  inhibition: Active
[4]
  IC50: 19.4 µM
SW1990 [5]
  Activity: Active
MDA-MB-231
  IC50: 0.64 µM
SW1990 [6]
  inhibition: Active
SW1990 [7]
  Activity: 36.2%
SW1990 [8]
  Activity: 19.43%
SW1990 [9]
  inhibition: Active
SW1990 [10]
  Activity: Active
SW1990 [11]
  IC50: 3.74 µM
Mus musculus [12]
  Activity: Non-Toxic
Mus musculus [13]
  Activity: Non-Toxic
SW1990 [14]
  inhibition: Active
CFPAC-1
  IC50: 1.56 µM

## CC[C@@H]1C(=O)N(C)c2cnc(N(C)c3ccc(-c4nc5c(C(N)=O)cccc5[nH]4)cc3OC)nc2N1C1CCCC1
Mus musculus [15]
  Activity: Non-Toxic
SW1990 [16]
  Activity: Active
SW1990 [17]
  Activity: Active
CAPAN-1
  IC50: 1.56 µM
SW1990 [18]
  Activity: Active
[4]
  IC50: 59.4 µM
[19]
  inhibition: Active
MDA-MB-231
  IC50: 0.34 µM
Mus musculus [20]
  Activity: Active
SW1990 [21]
  Activity: Active
SW1990 [22]
  Activity: Active
SW1990 [23]
  Activity: Active
SW1990 [24]
  Activity: Active
SW1990 [11]
  IC50: 0.98 µM
[25]
  IC50: 2.03 µM
SW1990 [26]
  Activity: 1.71%
CFPAC-1
  IC50: 1.16 µM
SW1990 [27]
  Activity: 10.5%
Mus musculus [28]
  inhibition: Active
Mus musculus [29]
  Activity: Active
SW1990 [30]
  Activity: 40.3%
Mus musculus [31]
  inhibition: Active
